Reference: patent US9839614B2, “Nanoparticle and polymer formulations for thyroid hormone analogs, antagonists, and formulations and uses thereof” (NANOPHARMACEUTICALS LLC, priority 2009, dated 2017)
“And” between values parts separate entries of the source, which are not always exact repeats. Identical values can stand only once.

Assays:
[1] = test system: Human medullary carcinoma of the thyroid (MTC) cells; test: Tumor growth and angiogenesis in the CAM cancer implant model; type: in vivo, chick; settings: 1 μg/CAM, 8 days, n=8
From the text: Penicillin streptomycin (1%) was present in both culture media. […] Water and food were provided ad libitum.

[2] = test system: human MTC cells gene expression; test: RNA microarray analysis of h-MTC cells; type: cell-based
Method: Technical aspects of microarray studies, stringent quality control of microarray studies and statistic analysis of gene expression were as described previously. […] In brief, the array hybridization and processing, data retrieval and the analysis were carried out with standard sets of Affymetrix (Santa Clara, Calif.) equipment, software and protocols in an Affymetrix microarray core facility. RNA was extracted from cell cultures of two independent biological replicates of each experimental condition and analyzed for sample purity and integrity, using BioAnalyzer instrumentation (Agilent, Santa Clara, Calif.). Expression analysis of 54,675 transcripts was conducted for each sample, using Affymetrix HG-U133A Plus 2.0 arrays. Data retrieval and analysis was completed by MAS5.0 software. Concordant changes of gene expression for each experimental condition were determined at the statistical threshold P value, <0.01 (two-tailed t test).

[3] = test system: GL261 murine brain tumor cells; test: GL261 single dose 250 kVp x-ray survival (SHMT and LQ analysis); type: cell-based
Method: To irradiate 25 cm^2 flasks, an x-ray machine was used and (Philips 250 kVp Therapeutic X-ray Machine, Einhoven, […]) operated at 250 kVp and 15 mA with added filtration of 0.4 mm Thoreaus filter. The target to source distance was approximately 30 cm. Dose rates were measured using an R-meter (Victoreen R-meter, Cleveland, Ohio), and converted to absorbed (Gy) doses using appropriate temperature, pressure, and R to Gy conversion factors. The dose rate was 1 Gy per min. Flasks were irradiated at ambient temperature.
For […] analyses, survival data lying at or below 36.8% survival were analyzed by using the log fractional survival (log FxS) versus dose (D). Data were fit using linear regression analysis (SigmaPlot, V. 10, Systat Corp., Point Richmond, Calif.) to obtain the Y-intercept (or n, the extrapolation number) and the slope (1/D0), and their 95% confidence limits. (See Goldstein, A. In: Biostatistics, New York, The MacMillan Co., 1964, p. 140-146). The D0 value (Gy) is defined as the inverse of the slope, and the corrected Dq value (Gy) was then defined using the relationship: Dq(Gy)=ln n×D0(Gy) The 95% confidence limits on Dq were defined using error propagation. (See Chase, et al., In: Principles of Radioisotope Methodology. Minneapolis, Minn. Burgess Publ. Co., 1962, p. 68, 87-90). Statistics: LQ Analysis
For LQ analyses, data lying between a fractional survival of 1.00 and 0.05 were used. The fractional survival data at each dose were transformed using the relationship (−ln F×S/D) and plotted against dose (D). A regression analysis was performed to yield the LQ equation along with their 95% confidence limit values using a t-table with the appropriate (N−1) degrees of freedom. (See Goldstein, A. In: Biostatistics, New York, The MacMillan Co., 1964, p. 140-146).
To determine the tetrac modification factor (TMF), the survival at 2 Gy obtained for control cells was divided by the survival at 2 Gy for tetrac treated cells. The 95% confidence limits on the ratio were determined using error propagation techniques. (See Chase, et al. In: Princiiples of Radioisotope Methodology, Minneapolis, Minn., Burgress Publ. Co., 1962, p. 68, 87-90).

[4] = test system: GL261 murine brain tumor cells; test: GL261 sublethal damage repair (SLDR), split dose; type: cell-based
Method: SLDR was measured at 10% immediate survival level as determined from the acute single dose curve for both control and Tetrac-treated cells in both growth states (i.e. exponentially growing and plateau phase cells. Flasks were irradiated with one-half of the total dose and returned to the 37° C. incubator. At increasing periods of time, flasks were removed, and given the second half of the immediate 10% survival dose. Survival was measured at 0, 0.5, 1.0, 1.5, 2.0, 3.0, 4.0, 6.0, 8.0, and 10.0 hours after the initial dose.
To investigate the effects of tetrac on SLDR and PLDR, cells were chosen that had been given a one-hour treatment with tetrac at two different times, i.e., at 70 and 270 hours post-seeding).

[5] = test system: P-gp, GST and SOD in MCF7/R cells; test: Western blot of drug resistance genes; type: cell-based; settings: 24 h
Method: FIG. 15A is a Western blot showing the expression of P-gp, GST and SOD in wild type (W) drug sensitive and resistant (R) MCF7 cells.
The cells were treated for 24 h with each drug alone or the combination of both, after that, expression of drug resistance molecules was determined by Western blot using specific antibodies.

[6] = test system: SKN-SH/R cells; test: Senescence and apoptosis in drug resistant cells; type: cell-based; settings: 24 h
Method: In FIG. 16A, SKN-SH/R cells were subjected to treatment doxorubicin (Dox) alone, Tetrac alone, or the combination of both for 24 h. Expression of p21/WAF1, cleaved caspase-3 (Cl-Casp-3) and beta action were measured by Western blot using specific antibodies.
FIG. 16B discloses the cells were seeded in 24 well plates and treated as mentioned above and expression of the senescence associated beta galactosidase (SA-β-Gal.) was assayed as described in the methods section.
FIG. 16C discloses the cells were seeded on cover slips and treated with the drugs as above for 24 h, after which they were fixed and stained with Hoechst and the percentage of positive cells graphed. The data represent average of 3 determinations±SE.

[7] = Exponential phase (with Tetrac)
[8] = Unfed plateau Phase (with Tetrac)

SMILES: O=C(O)Cc1cc(I)c(Oc2cc(I)c(O)c(I)c2)c(I)c1 [Tetrac, tetraiodothyroacetic acid]
- tumor growth [1]: effective inhibition
- tumor-mediated angiogenesis [1]: significant inhibition
- VEGFA expression [2]: significantly decreased expression
- expression of apoptosis genes (CASP2, DFFA, FAF1, CASP8AP2) [2]: caused expression of genes associated with induction of apoptosis
- thrombospondin (THBS1) gene expression [2]: concomitant increase
- SF2 (survival at 2 Gy) ([3]; Exponential Phase (with Tetrac), 95% confidence limits in parentheses): 14.2 (10.8-18.8) %
- SHMT n ([3]; Exponential phase (with Tetrac 2 μM, 1 h)): 1.06
- LQ α (Gy^−1) [3, 7]: 0.930 Gy^−1
- LQ β (Gy^−2) [3, 7]: 0.003 Gy^−2
- SHMT D0 (Gy) [3, 7]: 1.08 Gy and 1.08 (0.09). Gy
- sensitization of hypoxic or oxic cells ([3]; Tetrac 2 μM): sensitize both oxic and hypoxic cells equally
- LQ α (Gy^−1) [3, 8]: 1.157 Gy^−1
- LQ β (Gy^−2) [3, 8]: 0.066 Gy^−2
- SF2 (survival at 2 Gy) [3, 8]: 7.6%
- SHMT D0 (Gy) [3, 8]: 0.75 Gy
- SHMT Dq (Gy) [3, 8]: 0.00 Gy
- SHMT n [3, 8]: 1.04
- increase of D0 ([3]; exponentially growing cells): 15%
- reduction of Dq ([3]; exponentially growing cells): 100%
- reduction of extrapolation number n ([3]; exponentially growing cells): 93%
- survival of Tetrac treated cells at 2 Gy ([3]; non-Tetrac treated cells 32% (FIG. 57)): 13%
- reduction of D0 ([3]; plateau phase cells): 6%
- reduction of Dq ([3]; plateau phase cells): 100%
- cellular repair of x-ray damage (FIG. 58) ([4]; Tetrac 2 uM, 6 to 8 hours post-irradiation): no repair of x-ray damage
- SLDR recovery ratio ([4]; exponential Tetrac-treated cells, 2 hours after the first dose): 1.8
- factor of reduction of SLDR ([4]; exponential cells): 1.8
- factor of decrease in cellular repair ([4]; plateau phase cells, three hours post-irradiation): ~3
- survival relative to survival at 0 hours ([4]; plateau phase, 3 hours after the initial dose): approximately 36%
- expression of P-glycoprotein, SOD, and GST-π [5]: none of these genes was significantly altered
- doxorubicin-induced proliferation arrest, SA-β-Gal and cell death [6]: dramatically enhanced
